Reference: ChEMBL document CHEMBL3046250, “Synthesis and anticonvulsant evaluation of 3-substituted-4-(4-hexyloxyphenyl)-4H-1,2,4-triazoles” (Med Chem Res, 2009)

Columns and labels:
[1] = Neurotoxicity in Mus musculus (mouse) by rotarod test; type: toxicity, organism-based; settings: in vivo
[2] = Neurotoxicity in ip dosed Mus musculus C57B/6 (mouse) assessed as inability to maintain equilibrium measured after 30 min by rotarod test; type: toxicity, organism-based; settings: in vivo
[3] = Protective index, ratio of TD50 for neurotoxicity to ED50 for anticonvulsant activity in ip dosed Mus musculus C57B/6 (mouse); type: toxicity, organism-based; settings: in vivo, read-out: Ratio TD50/ED50
Mus musculus [4] = assay: Anticonvulsant activity in ip dosed Mus musculus C57B/6 (mouse) assessed as protection against maximal electroshock-induced seizures; type: functional; settings: C57B/6, ip
Mus musculus [5] = assay: Anticonvulsant activity in Mus musculus (mouse) assessed protection against subcutaneous pentylenetetrazole-induced seizures; type: functional; settings: sc

Compound	TD50 [1]	TD50 at 0.5 h [2]	selectivity ratio [3]	ED50 (Mus musculus [4])	ED50 (Mus musculus [5])
O=C1CCc2cc(OCc3ccccc3)ccc2N1	> 300 mg/kg				
CCCCCCOc1ccc(-n2cnnc2Cc2ccccc2)cc1		131 mg/kg	6.9	19 mg/kg	
CCCCCCOc1ccc(-n2cnnc2CCc2ccccc2)cc1		158 mg/kg	5.7	27.4 mg/kg	
CCCCCCOc1ccc2c(c1)CCc1nncn1-2			2.2		
CCCCCCOc1ccc(-n2cnnc2-c2ccccc2Cl)cc1		91.2 mg/kg	6.9	13.2 mg/kg	
CCCCCCOc1ccc(-n2cnnc2CCC)cc1		65.7 mg/kg	11.5	5.7 mg/kg	
CCCCCCOc1ccc(-n2cnnc2CCCCCC)cc1				> 40 mg/kg	
CCCCCCOc1ccc(-n2cnnc2-c2ccc(OC)cc2)cc1		120 mg/kg	7.6	15.8 mg/kg	
CCCCCCOc1ccc(-n2cnnc2-c2ccc(F)cc2)cc1		91.3 mg/kg	4.2	22 mg/kg	
CCCCCCOc1ccc(-n2cnnc2)cc1		112 mg/kg	11.4	9.8 mg/kg	
CCCCCCCc1nncn1-c1ccc(OCCCCCC)cc1				> 40 mg/kg	
CCCCCCOc1ccc(-n2cnnc2-c2ccccc2F)cc1		101 mg/kg	5	20.2 mg/kg	
CCCCCCOc1ccc(-n2cnnc2-c2cccc(F)c2)cc1		104 mg/kg	3.8	27.4 mg/kg	
CCCCCCOc1ccc(-n2cnnc2C)cc1		114 mg/kg	4.9	22.8 mg/kg	
CCCCCCOc1ccc(-n2cnnc2-c2ccc(C)cc2)cc1		101 mg/kg	8.8	11.4 mg/kg	
CCCCCCOc1ccc(-n2cnnc2-c2ccccc2)cc1		137 mg/kg	7.2	19 mg/kg	
CCCCCCOc1ccc(-n2cnnc2CC)cc1			4.7		
CCCCCCOc1ccc(-n2cnnc2-c2ccc(Cl)cc2)cc1		137 mg/kg	6.9	19.7 mg/kg	
CCCCCCCCCc1nncn1-c1ccc(OCCCCCC)cc1				> 40 mg/kg	
CCCCCCOc1ccc(-n2cnnc2CCCC)cc1		110 mg/kg	8.1	13.6 mg/kg	
c1ccc(COc2ccc3c(c2)CCc2nncn2-3)cc1					24 mg/kg
CCCCCCOc1ccc(-n2cnnc2CCCCC)cc1		189 mg/kg	5.8	32.8 mg/kg	
